Consider six compounds from EP0081312A2, “Antibiotics, their preparation and use” (BEECHAM GROUP PLC, priority 1981, dated 1983).

≈ marks a conversion by molar mass, not a printed value. Read-outs that look alike come from different tables or passages of the source.

Common to all, as to experiment: MIC, concentration required to inhibit growth of bacteria
Assay type in all cases: cell-based

For assay [1], the system named is Citrobacter freundii Ei.
Assay [2] has as its system Enterobacter cloacae N1.
The test system of assay [3] is Escherichia coli 0111.
For assay [4], the system named is Escherichia coli JT39.
In assay [5] the test system is Klebsiella aerogenes A.
For assay [6], the system named is Proteus mirabilis C977.
Assay [7] deals with Proteus morganii 1580. The settings on record: Morganella morganii.
For assay [8], the system named is Proteus rettgeri WM16. As to conditions: Providencia rettgeri.
In assay [9] the test system is Proteus vulgaris WO91.
Assay [10] deals with Pseudomonas aeruginosa A.
The test system of assay [11] is Salmonella typhirmurium CT10.
Assay [12] has as its system Serratia marcescens US20.
Assay [13] concerns Shigella sonnei MB 11967. As to conditions: MB11967.
The test system of assay [14] is Bacillus Subtilis A.
The subject of assay [15] is Staphylococcus aureux Oxford.
Assay [16] deals with Staphylococcus aureus Russell.
Assay [17] deals with Staphylococcus aureus 1517.
Assay [18] concerns Streptococcus faecalis I. The settings on record: Enterococcus faecalis.
Assay [19] has as its system Escherichia coli ESS.
The test system of assay [20] is Streptococcus pyogenes CN10.
Assay [21] relates to Streptococcus pneumoniae CN33.
Where [22] appears, read: Citrobacter freundii Ei, read-out: MIC.
The mark [23] stands for this setting: Klebsiella aerogenes A, read-out: MIC.
The mark [24] stands for this setting: Proteus morganii 1580, read-out: MIC.
Where [25] appears, read: Proteus rettgeri WM16, read-out: MIC.
Setting [26] is: Pseudomonas aeruginosa A, read-out: MIC.
Setting [27] is: Bacillus Subtilis A, read-out: MIC.
Setting [28] is: Staphylococcus aureux Oxford, read-out: MIC.
The mark [29] stands for this setting: Staphylococcus aureus Russell, read-out: MIC.
[30] abbreviates: Streptococcus faecalis I, read-out: MIC.

Usually MIC stands for the least concentration at which growth counts as inhibited. `C[C@H](O)[C@@H]1C(=O)N2C(C(=O)O)=C(S/C=C\C(=O)N(C(=O)NC3CCCCC3)C3CCCCC3)C[C@H]12` [Example 1]: the MIC in assay [1] (setting [22]) stood at 12.5 µg/mL (≈ 24.7 µM); in assay [2] (read-out: MIC), 50 µg/mL (≈ 98.9 µM); in assay [3], 25 µg/mL (≈ 49.4 µM); in assay [4] (read-out: MIC) it was 50 µg/mL (≈ 98.9 µM); in assay [5] (setting [23]), 25 µg/mL (≈ 49.4 µM); in assay [6] (read-out: MIC), 50 µg/mL (≈ 98.9 µM). Also, the MIC in assay [7] (setting [24]) is 25 µg/mL (≈ 49.4 µM); in [8] (setting [25]), 50 µg/mL (≈ 98.9 µM); in assay [9] (read-out: MIC), 25 µg/mL (≈ 49.4 µM); in [10] (setting [26]), above 100 µg/mL; in [11], 25 µg/mL (≈ 49.4 µM); in assay [12] (read-out: MIC) it was 25 µg/mL (≈ 49.4 µM). The MIC in assay [13] is 25 µg/mL (≈ 49.4 µM); in assay [14] (setting [27]), at most 0.1 µg/mL; in assay [15] (setting [28]), 0.4 µg/mL (≈ 0.791 µM); in assay [16] (setting [29]), 0.8 µg/mL (≈ 1.58 µM); in assay [17] (read-out: MIC), 6.2 µg/mL (≈ 12.3 µM); in assay [18] (setting [30]), 0.8 µg/mL (≈ 1.58 µM). Besides, 1.6 µg/mL (≈ 3.16 µM) was the least that counted as inhibitory in [19] (MIC).

For the compound `C[C@H](O)[C@@H]1C(=O)N2C(C(=O)[O-])=C(S/C=C\C(=O)NCc3ccccc3)C[C@H]12.[Na+]` [Example 2, Sodium (5R,6R)-3-[(Z)-2 benzylaminocarbonylethenylthio]-6-[(S)-1-hydroxyethyl]-7-oxo-1-azabicyclo[3.2.0]hept-2-ene-2-carboxylate], the MIC was at most 0.1 µg/mL in assay [1] (Citrobacter freundii); 0.2 µg/mL in assay [2]; 0.2 µg/mL in assay [3]; 0.2 µg/mL in assay [4]; 0.2 µg/mL in assay [5] (Klebsiella aerogenes); at most 0.1 µg/mL in [6]. Moreover, the MIC in [7] (1580) is 0.8 µg/mL; in [8] (WM16), 0.4 µg/mL; in [9], 0.2 µg/mL; in assay [10] (Pseudomonas aeruginosa), 25 µg/mL; in assay [11], at most 0.1 µg/mL; in [12], 0.4 µg/mL. The minimal inhibitory concentration (MIC) was at most 0.1 µg/mL in [13]; at most 0.1 µg/mL in assay [14] (Bacillus subtilis); at most 0.1 µg/mL in [15] (Staphylococcus); at most 0.1 µg/mL in [16] (Staphylococcus aureus); 1.6 µg/mL in [17]; 0.2 µg/mL in assay [18]. Besides, the MIC in assay [20] and in assay [19] was at most 0.1 µg/mL in each case.

Take `C[C@@H](OC=O)[C@H]1C(=O)N2C(C(=O)[O-])=C(S/C=C\C(=O)NCc3ccccc3)C[C@H]12.[Na+]` [Example 3, Sodium (5R,6S)-3-[(Z)-2-benzylaminocarbonylethenylthio]-6-[(R)-1-formyloxyethyl]-7-oxo-1-azabicyclo[3.2.0]hept-2-ene-2-carboxylate]: the MIC in assay [1] (Citrobacter freundii) was determined as 3.1 µg/mL; in assay [2], 3.1 µg/mL; in assay [3] it was 0.8 µg/mL; in assay [4], 0.4 µg/mL; in [5] (Klebsiella aerogenes) it was 0.4 µg/mL; in assay [6] it was 1.6 µg/mL. In addition, the minimal inhibitory concentration (MIC) in assay [7] (1580) amounted to 6.2 µg/mL; in [8] (WM16), 3.1 µg/mL; in assay [9] it was 0.4 µg/mL; in assay [10] (Pseudomonas aeruginosa), 50 µg/mL; in assay [11] it was 0.4 µg/mL; in [12] it was 3.1 µg/mL. Moreover, the MIC in assay [13] is 1.6 µg/mL; in assay [14] (Bacillus subtilis) it was at most 0.1 µg/mL; in assay [15] (Staphylococcus), at most 0.1 µg/mL; in [17], 3.1 µg/mL; in [18], 0.8 µg/mL; in assay [21], 0.8 µg/mL. Moreover, the results for the MIC in assay [20] and in assay [19] were 0.8 µg/mL and 0.4 µg/mL, respectively.

Turning to `C[C@@H](O)[C@H]1C(=O)N2C(C(=O)O)=C(S/C=C\C(=O)NCc3ccccc3)C[C@H]12` [Example 4, Sodium (5R,6S)-3-[(Z)-2 benzylaminocarbonylethenylthio]-6-[(R)-1-hydroxyethyl]-7-oxo-1-azabicyclo[3.2.0]hept-2-ene-2-carboxylate.], the minimum inhibitory concentration (MIC) was 0.8 µg/mL in [1] (setting [22]); 1.6 µg/mL in [2] (read-out: MIC); 0.2 µg/mL in [3]; at most 0.1 µg/mL in [4] (read-out: MIC); at most 0.1 µg/mL in assay [5] (setting [23]); 0.8 µg/mL in assay [6] (read-out: MIC). Moreover, the MIC amounted to 1.6 µg/mL in assay [7] (setting [24]); 3.1 µg/mL in assay [8] (setting [25]); 0.4 µg/mL in assay [9] (read-out: MIC); 50 µg/mL in [10] (setting [26]); 0.2 µg/mL in assay [11]; 0.8 µg/mL in assay [12] (read-out: MIC). Further, the MIC in assay [13] is 0.4 µg/mL; in assay [14] (setting [27]) it was at most 0.1 µg/mL; in assay [15] (setting [28]) it was at most 0.1 µg/mL; in assay [16] (setting [29]), at most 0.1 µg/mL; in [17] (read-out: MIC) it was 6.2 µg/mL; in assay [18] (setting [30]), 0.4 µg/mL. For the same compound, the MIC in assay [21] (read-out: MIC), in assay [20] (read-out: MIC) and in [19] was at most 0.1 µg/mL in each case.

Regarding `CC(O)C1C(=O)N2C(C(=O)[O-])=C(S/C=C/C(N)=O)CC12.[Na+]` (stereo not shown) [Example 5, Sodium 3-[E-2-carbamoylethenylthio]-6-[1-hydroxyethyl]-7-oxo-1-azabicyclo[3.2.0]hept-2-ene-2-carboxylate], the MIC in [1] (Citrobacter freundii) turned out to be 1.6 µg/mL; in assay [2], 1.6 µg/mL; in assay [3], 0.4 µg/mL; in assay [4] it was 0.8 µg/mL; in [5] (Klebsiella aerogenes), 1.6 µg/mL; in [6], 3.1 µg/mL. In addition, the MIC in [7] (1580) was 6.2 µg/mL; in [8] (WM16), 6.2 µg/mL; in assay [9] it was 6.2 µg/mL; in [10] (Pseudomonas aeruginosa), above 100 µg/mL; in assay [11] it was 1.6 µg/mL; in assay [12] it was 3.1 µg/mL. Moreover, the MIC was determined as 1.6 µg/mL in [13]; 0.2 µg/mL in [14] (Bacillus subtilis); 0.8 µg/mL in [15] (Staphylococcus); 1.6 µg/mL in assay [16] (Staphylococcus aureus); 50 µg/mL in [17]; 6.2 µg/mL in assay [18]. Moreover, the results for the MIC in assay [21], in [20] and in assay [19] were at most 0.1 µg/mL, 0.2 µg/mL and 0.4 µg/mL, respectively.

Regarding `CC(O)C1C(=O)N2C(C(=O)[O-])=C(S/C=C\C(N)=O)CC12.[Na+]` (stereo not shown) [Example 6, Sodium 3-[Z-2-carbamoylethenylthio]-6-[1-hydroxyethyl]-7-oxo-1-azabicyclo[3.2.0]hept-2-ene-2-carboxylate], the MIC in assay [1] (Citrobacter freundii) was found to be 50 µg/mL; in assay [2] it was 25 µg/mL; in [3], 6.2 µg/mL; in [4], 12.5 µg/mL; in [5] (Klebsiella aerogenes), 6.2 µg/mL; in assay [6], 50 µg/mL. The MIC in [7] (1580) was 50 µg/mL; in assay [8] (WM16), 50 µg/mL; in [9], 25 µg/mL; in [10] (Pseudomonas aeruginosa) it was above 100 µg/mL; in [11], 6.2 µg/mL; in assay [12], 12.5 µg/mL. In addition, the MIC in assay [13] was 12.5 µg/mL; in assay [14] (Bacillus subtilis), 1.6 µg/mL; in assay [15] (Staphylococcus) it was 1.6 µg/mL; in assay [16] (Staphylococcus aureus), 3.1 µg/mL; in [17] it was 100 µg/mL; in assay [18], 50 µg/mL. For the same compound, the MIC in [20] and in [19] was 3.1 µg/mL each time.
